Measured values from ChEMBL document CHEMBL5380777, “Efficacy, Mechanism, and Structure-Activity Relationship of 6-Methoxy Benzofuran Derivatives as a Useful Tool for Senile Osteoporosis” (J Med Chem, 2023).
Activity calls are given as the source filed them. The rule behind the calls is not given here.

What was measured:
[1] = Toxicity in 16 months old C57 mouse assessed as change in alkaline phosphatase level administered at 30 mg/kg/day, IG continuously for 4 months; assay type: organism-based; details: in vivo, po, 2920 h
[2] = test system: Mus musculus; test: Anti osteoporosis in 16 months old C57 mouse assessed as dendritic cell level in femur administered at 30 mg/kg/day, IG continuously for 4 months by scRNA-seq analysis (reference value: 1.34%); assay type: functional; details: 2920 h
[3] = Toxicity in 2.5 months old SAMP-6 rapid aging mouse model assessed as change in urea level administered at 30 mg/kg/day, IG continuously for 3 months in presence of ALN; assay type: organism-based; details: in vivo, po, 2190 h
[4] = test system: Mus musculus; test: Anti osteoporosis in 2.5 months old SAMP-6 rapid aging mouse model assessed as upregulation of serum BMP2 administered at 30 mg/kg/day, IG in presence of ALN continuously for 3 months […]; assay type: functional, organism-based
[5] = test system: Osteoblast; test: Upregulation of transcription factor PSMD12 expression in 16 months old C57 mouse osteoblast by scRNA-seq analysis; assay type: functional, cell-based
[6] = test system: Osteoblast; test: Regulation of osteogenesis in 16 months old C57 mouse osteoblast endoplasmic reticulum assessed as increase in Hspa8 gene by scRNA-seq analysis; assay type: functional, cell-based
[7] = test system: Mus musculus; test: Anti osteoporosis in 16 months old C57 mouse assessed as increase in bone mass administered at 30 mg/kg/day, IG continuously for 4 months by micro CT analysis relative to young control group; assay type: functional, organism-based
[8] = Toxicity in 16 months old C57 mouse assessed as change in cholesterol level administered at 30 mg/kg/day, IG for 4 months for every 6 days; assay type: organism-based; details: in vivo, po, 2920 h
[9] = test system: Osteocyte; test: Upregulation of BMP-2 expression in 16 months old C57 mouse osteocytes by scRNA-seq analysis; assay type: functional, cell-based
[10] = test system: Osteoblast; test: Upregulation of transcription factor JUND expression in 16 months old C57 mouse osteoblast by scRNA-seq analysis; assay type: functional, cell-based
[11] = test system: Osteoblast; test: Regulation of osteogenesis in 16 months old C57 mouse osteoblast endoplasmic reticulum assessed as increase in CRYAB gene by scRNA-seq analysis; assay type: functional, cell-based

For `COc1ccc2cc(C(=O)NCCN(C)C)oc2c1.CS(=O)(=O)O`, the Activity [1] was “Non-Toxic”, the Activity [2] was 0.68% and the Activity [3] was “Non-Toxic”. The Activity [4] was “Active”, the Activity [5] was “Active” and the Activity [6] was “Active”. For the same compound, the Activity [7] was “Active”, the Activity [8] was “Non-Toxic” and the Activity [9] was “Active”. For the same compound, the Activity [10] was “Active” and the Activity [11] was “Active”.
